Biological target: T1, FicD^WT (Homo sapiens, UniProt Q9BVA6)
T1 construct: soluble ER luminal domain (residues 105 to 458) of wild-type human FicD; 6xHis-Sumo (N, cleaved yes); made in house; host or cells: Rosetta(DE3) E. coli
T1 sequence (Q9BVA6 105-458): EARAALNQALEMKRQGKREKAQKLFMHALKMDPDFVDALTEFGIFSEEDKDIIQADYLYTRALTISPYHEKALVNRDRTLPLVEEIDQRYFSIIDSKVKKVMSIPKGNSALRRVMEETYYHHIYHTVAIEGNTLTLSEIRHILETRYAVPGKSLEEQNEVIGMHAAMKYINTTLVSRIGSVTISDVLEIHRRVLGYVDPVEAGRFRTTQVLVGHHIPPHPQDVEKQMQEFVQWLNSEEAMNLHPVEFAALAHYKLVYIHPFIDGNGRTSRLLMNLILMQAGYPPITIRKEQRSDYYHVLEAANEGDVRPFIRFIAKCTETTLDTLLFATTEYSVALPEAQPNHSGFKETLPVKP
Assay: Total (intact) mass analysis of FicD^WT incubated with FPP
Settings: 50uM FPP, 5mM MgCl2
Source text: To reveal the mechanism of FicD inhibition by FPP, we leveraged the FicD^E234G mutant for structural studies. We soaked FPP into crystals of the FicD^E234G variant and solved the ligand-bound structure (Fig. 5 A and B). […] The diphosphate group of FPP closely overlapped with the ADP diphosphate when superimposed with a FicD^E234G-ADP structure (Fig. 5 A, Left), and the hydrophobic isoprenyl groups of FPP overlap with the nucleoside in the active site binding pocket (Fig. 5 A, Right). The FPP diphosphate binds directly to the side chains of N369, R371, with the sidechain of D367 coordinating the Mg^2+ (Fig. 5B). These interactions mimic those observed between ADP/ATP and FicD ([26]). […] As previously noted, only GPP and FPP could bind to and inhibit FicD, but analogs of the isoprenoid-pyrophosphate metabolites (geraniol, GMP, farnesol, FMP, DMAPP, and MVAPP) could not (Fig. 2 B–D). Together, these observations indicate both the pyrophosphate head and the long isoprenoid tail of GPP/FPP contribute to the binding with FicD. […]
Intact mass analysis of proteins was performed by the UT Southwestern Proteomics Core. Intact protein samples were analyzed by LC/MS, using a Sciex X500B QTOF mass spectrometer operating in positive ion mode, coupled to an Agilent 1290 Infinity II HPLC. […]

## CC(C)=CCC/C(C)=C/CC/C(C)=C/COP(=O)(O)OP(=O)(O)O [FPP, farnesyl-pyrophosphate]
  mass shift associated with putative FPP automodification: no mass shift

Source: paper PMC12974487, “Inhibition of FicD-mediated AMPylation and deAMPylation by isoprenoid diphosphates” (Proceedings of the National Academy of Sciences of the …, 2026)
